# In patent EP1067939B1, “USE OF STEROIDAL ALKALOID DERIVATIVES AS INHIBITORS OF HEDGEHOG PROTEIN SIGNALING PATHWAYS” (The Johns Hopkins University, priority 1998, dated 1999):
# Where two headings read alike, the source gives them in different places.
# What was measured:
# Shh-N = test: Intermediate neural plate explant response to exogenous Shh-N protein; format: cell-based, chick
# BMP7 = test: Neural plate explant response to BMP7 (migratory HNK-1 positive cells); format: cell-based, chick
# His6Hh-C = target: T1, His6Hh-C (Drosophila melanogaster, UniProt Q02936); test: In vitro Hh autoprocessing reaction with purified components; format: biochemical; details: for efficiency in driving the in vitro autoprocessing reaction: 12 µM sterol
# T1 construct: made in house
# [1] = at the concentrations that block the response to 25 nM Shh-N
# T1 sequence (Q02936 252-471): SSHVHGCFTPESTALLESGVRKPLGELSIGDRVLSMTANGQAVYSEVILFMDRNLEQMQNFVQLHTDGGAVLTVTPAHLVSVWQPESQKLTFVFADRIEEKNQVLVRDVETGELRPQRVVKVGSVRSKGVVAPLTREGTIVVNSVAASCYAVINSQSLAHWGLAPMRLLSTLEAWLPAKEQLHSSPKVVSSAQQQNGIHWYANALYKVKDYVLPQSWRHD
compound,measurement,setting,value
CCN(CC)CCCC(C)Nc1ccnc2cc(Cl)ccc12 (centres unmarked) [chloroquine],concentration that blocks the response of intermediate neural plate explants to 25 nM Shh-N,Shh-N,50 µM
same,signaling by BMP7,BMP7,without affecting signaling by BMP7
CC(C)=CCC[C@@H](C)[C@H]1CC[C@@]2(C)C3=C(CC[C@]12C)[C@@]1(C)CC[C@H](O)C(C)(C)[C@@H]1CC3 [Lanosterol],stimulation of autoprocessing,His6Hh-C; 12 and 350 µM,do not stimulate autoprocessing above background
"CC(C)CCC[C@@H](C)[C@H]1CC[C@H]2C3=CC=C4C[C@@H](O)CC[C@]4(C)[C@H]3CC[C@]12C [7DHC, 7-dehydrocholestetol]",efficiency in driving the in vitro autoprocessing reaction,His6Hh-C,efficiencies similar to that of cholesterol
C[C@H]([C@H](O)CCC(C)(C)O)[C@H]1CC[C@@]2(O)C3=CC(=O)[C@@H]4C[C@@H](O)[C@@H](O)C[C@]4(C)[C@H]3CC[C@]12C [α-ecdysone],participation of sterol in the autoprocessing reaction,His6Hh-C,unable to participatein the reaction
CCN(CC)CCO[C@H]1CC[C@@]2(C)C(=CC[C@@H]3[C@@H]2CC[C@]2(C)C(=O)CC[C@@H]32)C1 [U 18666A],concentration that blocks the response of intermediate neural plate explants to 25 nM Shh-N,Shh-N; 25 nM Shh-N,0.25 µM
same,signaling by BMP7,BMP7; [1],without affecting signaling by BMP7
CC(=O)[C@H]1CC[C@H]2[C@@H]3CCC4=CC(=O)CC[C@]4(C)[C@H]3CC[C@]12C [progesterone],concentration that blocks the response of intermediate neural plate explants to 25 nM Shh-N,Shh-N; 25 nM Shh-N,20 µM
same,signaling by BMP7,BMP7; [1],without affecting signaling by BMP7
CC(C)=CCC[C@@H](C)[C@H]1CC[C@H]2[C@@H]3CC=C4C[C@@H](O)CC[C@]4(C)[C@H]3CC[C@]12C [desmosterol],efficiency in driving the in vitro autoprocessing reaction,His6Hh-C,efficiencies similar to that of cholesterol
CN(C)CCCN1c2ccccc2CCc2ccccc21 [imipramine],concentration that blocks the response of intermediate neural plate explants to 25 nM Shh-N,Shh-N; 25 nM Shh-N,75 µM
same,signaling by BMP7,BMP7; [1],without affecting signaling by BMP7
CC(C)CC[C@@H](O)[C@](C)(O)[C@H]1CC[C@@]2(O)C3=CC(=O)[C@]4(O)C[C@@H](O)[C@@H](O)C[C@]4(C)[C@H]3[C@H](O)C[C@]12C [muristerone],stimulation of autoprocessing,His6Hh-C,do not stimulate autoprocessing above background
CC(=O)O[C@H]1CC[C@@]2(C)C(=CC[C@H]3[C@@H]4CC[C@H]([C@H](C)CCCC(C)C)[C@@]4(C)CC[C@@H]32)C1 [cholesterol acetate],participation of sterol in the autoprocessing reaction,His6Hh-C,unable to participatein the reaction
CC(C)CCC[C@@H](C)[C@H]1CC[C@H]2[C@@H]3CC=C4C[C@@H](S)CC[C@]4(C)[C@H]3CC[C@]12C [thiocholesterol],participation of sterol in the autoprocessing reaction,His6Hh-C,unable to participatein the reaction
CC(C)CCC[C@@H](C)[C@H]1CC[C@H]2C3=CC[C@H]4C[C@@H](O)CC[C@]4(C)[C@H]3CC[C@]12C [lathosterol],efficiency in driving the in vitro autoprocessing reaction,His6Hh-C,efficiencies similar to that of cholesterol
CC(C)(O)CC[C@@H](O)[C@](C)(O)[C@H]1CC[C@@]2(O)C3=CC(=O)[C@@H]4C[C@@H](O)[C@@H](O)C[C@]4(C)[C@H]3CC[C@]12C [20-OH ecdysone],participation of sterol in the autoprocessing reaction,His6Hh-C,unable to participatein the reaction
C[C@H](CCCC(C)(C)O)[C@H]1CC[C@H]2[C@@H]3CC=C4C[C@@H](O)CC[C@]4(C)[C@H]3CC[C@]12C [25-hydroxycholesterol],reversal of the inhibitory effects of the teratogenic compounds,Shh-N; 25 µM added together with teratogenic compounds,did not reverse the inhibitory effects
same,explant responses to Shh-N,"Shh-N; 25 µM, 2nM or 25 nM Shh-N",None of the explant responses to treatment with 2nM or 25 nM Shh-N were affected
CC(C)CCC[C@@H](C)[C@H]1CC[C@H]2[C@@H]3CC=C4C[C@H](O)CC[C@]4(C)[C@H]3CC[C@]12C [Epicholesterol],participation of sterol in the autoprocessing reaction,His6Hh-C,unable to participatein the reaction
